# Molecular target: T1, purified human DNA topoisomerase IIα (Homo sapiens, UniProt P11388)
# T1 construct: purchased TopoGEN
# Experiment: Inhibition of topoisomerase II activity (TopoGEN Topoisomerase II Drug Screening Kit)
# Format: biochemical
# Conditions: cell-free; FIG. 13; 0.3, 3, 30 μg/ml
# Protocol: With the liquid extract ViP-E_Matr'08_1102, prepared according to example 7, the liquid extract ViP-E_Matr08_1106, prepared according to example 8, or the liquid extract ViP-E_Matr'08_1105, prepared according to example 9, […] As positive control etoposide was carried along.
# The inhibition of topoisomerase II was determined using purified human DNA topoisomerase Ilα and the “Topoisomerase II Drug Screening Kit” from TopoGEN. Thereby it was proceeded according to the manufacturer's protocol. The DNA was separated by electrophoresis on an agarose gel and visualized under UV light after staining with ethidium bromide. With this approach the relaxed DNA (topoisomers) generated by topoisomerase II could be detected and clearly separated from the supercoiled DNA substrate.
# T1 sequence (P11388 whole entry): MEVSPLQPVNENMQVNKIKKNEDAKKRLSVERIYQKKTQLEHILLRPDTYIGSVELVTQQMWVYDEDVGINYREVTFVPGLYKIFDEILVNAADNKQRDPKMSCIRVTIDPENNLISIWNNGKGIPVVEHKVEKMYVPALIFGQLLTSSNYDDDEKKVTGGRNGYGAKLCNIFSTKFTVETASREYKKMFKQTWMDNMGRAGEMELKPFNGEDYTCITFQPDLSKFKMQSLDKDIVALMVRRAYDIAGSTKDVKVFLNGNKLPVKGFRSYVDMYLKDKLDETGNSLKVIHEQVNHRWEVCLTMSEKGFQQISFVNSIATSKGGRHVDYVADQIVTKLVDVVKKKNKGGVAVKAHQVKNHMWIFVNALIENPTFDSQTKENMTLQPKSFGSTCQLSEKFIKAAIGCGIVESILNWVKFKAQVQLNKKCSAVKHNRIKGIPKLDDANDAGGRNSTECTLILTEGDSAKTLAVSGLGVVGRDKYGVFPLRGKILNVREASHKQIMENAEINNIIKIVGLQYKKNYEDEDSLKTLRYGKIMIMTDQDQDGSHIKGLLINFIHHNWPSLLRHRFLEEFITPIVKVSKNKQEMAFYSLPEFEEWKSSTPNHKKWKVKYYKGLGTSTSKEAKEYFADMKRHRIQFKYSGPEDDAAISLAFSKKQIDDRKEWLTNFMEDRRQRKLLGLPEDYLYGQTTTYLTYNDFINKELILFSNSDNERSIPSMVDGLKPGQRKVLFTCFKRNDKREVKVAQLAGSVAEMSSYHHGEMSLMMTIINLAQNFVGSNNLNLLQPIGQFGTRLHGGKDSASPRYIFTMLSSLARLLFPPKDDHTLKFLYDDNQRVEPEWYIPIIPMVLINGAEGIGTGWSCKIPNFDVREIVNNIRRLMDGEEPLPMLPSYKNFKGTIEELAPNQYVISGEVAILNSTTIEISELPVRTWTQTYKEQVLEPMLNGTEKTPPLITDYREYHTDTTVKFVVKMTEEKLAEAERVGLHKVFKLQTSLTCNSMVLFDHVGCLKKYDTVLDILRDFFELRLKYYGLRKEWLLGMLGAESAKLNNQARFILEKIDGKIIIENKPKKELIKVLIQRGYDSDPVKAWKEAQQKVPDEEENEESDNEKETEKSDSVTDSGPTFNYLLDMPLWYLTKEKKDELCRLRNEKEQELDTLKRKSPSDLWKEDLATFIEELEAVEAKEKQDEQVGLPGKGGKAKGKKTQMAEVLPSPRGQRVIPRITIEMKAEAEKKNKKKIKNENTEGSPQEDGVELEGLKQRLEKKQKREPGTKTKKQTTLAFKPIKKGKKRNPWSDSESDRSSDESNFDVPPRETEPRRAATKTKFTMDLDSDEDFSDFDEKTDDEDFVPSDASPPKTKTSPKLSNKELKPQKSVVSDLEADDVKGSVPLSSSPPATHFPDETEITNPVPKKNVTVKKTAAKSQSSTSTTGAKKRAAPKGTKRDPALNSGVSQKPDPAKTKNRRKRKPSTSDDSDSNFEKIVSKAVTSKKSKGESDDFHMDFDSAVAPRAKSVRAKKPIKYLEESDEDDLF
substance,measurement,value
α-Bisabolol,inhibition of topoisomerase II activity,did not influence the topoisomerase II activity in all tested concentrations

# From US20170348369A1, “Plant Extract and Its Therapeutic Use” (Viridis Pharmaceutical Limited, priority 2008, published 2017)
